Data from patent publication US11779628B2, “Use of cell-permeable peptide inhibitors of the JNK signal transduction pathway for the treatment of various diseases” (Xigen Inflammation Ltd., priority 2014, dated 2023).

System: Wistar rats, PAN-induced nephropathy
Settings: rat, in vivo
Excerpt: The aim of this study was to evaluate the effects of XG-102 on chronic puromycine aminonucleoside-induced nephropathy in rats during 56 days. Puromycin aminonucleoside (PAN) is a podocyte toxin inducing a loss and fusion of podocytes foot processes. PAN-induced nephropathy is a well-described model of human idiopathic […] syndrome and focal segmental glomerulosclerosis ([…], 2008). The glomerular morphologic changes seen in rats with PAN nephrosis closely resemble those in human minimal change disease (MCD) and focal segmental glomerulosclerosis (FSGS). Intraperitoneal administration of PAN in rats results in a rapid development of […] syndrome, characterized by proteinuria, hypoalbuminemia and hypercholesterolemia (acute phase). This is a well-established animal model of human MCD. […] The slides were stained by hematoxylin/eosin (HE), PAS-methenamine silver and Sirius Red for histological evaluation of morphological alterations, glomerulosclerosis and interstitial fibrosis quantification, respectively. […] Results are expressed by semi-quantitative scoring following to expert histopathologist evaluation. For the histological examination of glomerulosclerosis glomerular changes have been evaluated using a semi quantitative scoring system as described by […]. […] All data have been calculated as mean values±standard error of the mean (s.e.m.). […]

`CC(C)C[C@@H](NC(=O)[C@@H](Cc1ccccc1)NC(=O)[C@H]1CCCN1C(=O)[C@@H](CCC(N)=O)NC(=O)[C@H](NC(=O)[C@H]1CCCN1C(=O)[C@@H](CCCNC(=N)N)NC(=O)[C@@H](CO)NC(=O)[C@@H](CCC(N)=O)NC(=O)[C@H](N)CC(=O)O)C(C)C)C(=O)N[C@H](CC(N)=O)C(=O)N[C@H](CC(C)C)C(=O)N[C@@H](C(=O)N[C@@H](C(=O)N1CCC[C@@H]1C(=O)N[C@H](CCCNC(=N)N)C(=O)N[C@H](CCCCN)C(=O)N1CCC[C@@H]1C(=O)N[C@H](CCCNC(=N)N)C(=O)N1CCC[C@@H]1C(=O)N1CCC[C@@H]1C(=O)N[C@H](CCCNC(=N)N)C(=O)N[C@H](CCCNC(=N)N)C(=O)N[C@H](CCCNC(=N)N)C(=O)N[C@H](CCC(N)=O)C(=O)N[C@H](CCCNC(=N)N)C(=O)N[C@H](CCCNC(=N)N)C(=O)N[C@H](CCCCN)C(=O)N[C@H](CCCCN)C(=O)N[C@H](CCCNC(=N)N)C(=O)NCC(=O)O)[C@H](C)O)[C@H](C)O` [XG-102] was tested, and the body weight was “no effects of XG-102 were observed”.
